In the METLIN SMRT retention time set (Domingo-Almenara et al. 2019):

Assay: gradient 5% acetonitrile 3 min, to 50% in 2 min, to 85% in 15 min, held 3 min, 100 µL/min
Conditions: column: Zorbax Extend-C18 2.1 x 50 mm; eluents: water / acetonitrile, 0.1% formic acid
Procedure, shortened: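 Using water and acetonitrile that each contained 0.1% formic acid, mixtures of ~100 pure standards were separated at 100 μL/min on a Zorbax Extend-C18 column (2.1 × 50 mm, 1.8 μm). The HPLC fed a quadrupole time-of-flight mass spectrometer working in positive and negative ionization mode, with dead and dwell volumes of 40 μL and 900 μL. Data were acquired over 3 months. Retention time was read from computationally picked adduct peaks after manual inspection of each.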

Row | Structure (SMILES) | RP-LC retention time [s]
1 | CN1CCN(c2cc(C(=O)O)c3cc(NS(=O)(=O)c4ccc(Cl)c(Cl)c4)ccc3n2)CC1 | 644
2 | CCn1c(=O)sc2cc(S(=O)(=O)N3CCC(C(=O)Nc4cccc(C)n4)CC3)ccc21 | 768
3 | CCOC(=O)c1ccccc1NC(=O)c1c2c(cn(-c3ccccc3)c1=O)C(=O)CC(C)(C)C2 | 1120
4 | CN(C)c1nc2ncn3c(=O)n(CC(=O)NCc4ccccc4Cl)nc3c2s1 | 686
5 | CCSc1nccc2c1ccn2CC(=O)NCc1ccc(Br)cc1 | 681
6 | Cc1nnc(CNC(=O)c2cc(-c3ccccc3)nn2C)o1 | 646
7 | CCCn1cc(C(=O)Nc2ccc(OC)cc2C)c(=O)c2ccc(C)nc21 | 1130
8 | Clc1ccccc1-c1nc(-c2ccc(-n3cccn3)nc2)no1 | 1270
9 | CC(=O)Nc1ccc(NC(=O)c2nc3ccccn3c2-c2ccc(Cl)cc2)cc1 | 855
10 | Cc1ccc(S(=O)(=O)N2CC(=O)N(c3ccccc3F)C(C)(C(=O)NC3CCCC3)C2)cc1 (stereo not drawn) | 959
11 | O=C(NCc1ccccc1Cl)C1CCCN(C(=O)c2cc(-c3ccccn3)n[nH]2)C1 (stereo not drawn) | 680
12 | Cc1cccc(CNC(=O)c2cc3c(-c4cccs4)nn(-c4ccccc4)c3n2C)c1 | 1200
13 | Cc1nc2cc(NC(=O)c3cn(C)nn3)ccc2s1 | 629
14 | C=CCn1nc2c(C)c(C)nc(-c3cccnc3)n2c1=O | 631
15 | CCC(=O)Nc1ccc2c(c1)CN(C(=O)CCc1ccccc1)C(C(=O)N1CCCC1)C2 (stereo not drawn) | 708
16 | O=C(CCn1nnc2cc(S(=O)(=O)N3CCCC3)ccc21)N1CCN(c2ccccn2)CC1 | 602
17 | CC(=O)Nc1ccc(C(=O)N2CCN(c3cc(-c4ccc(Cl)cc4)[nH]n3)CC2)cc1 | 708
18 | Cc1cccc(N2C(=O)CN(Cc3ccccc3C)[C@H]3CS(=O)(=O)C[C@H]32)c1 | 872
19 | O=C(NCc1ccco1)c1ccc2c(c1)N(C(=O)c1ccc(F)cc1)CC2 | 823
20 | O=C(Cc1cccs1)N1CCN(c2nnc3ccc(C(F)(F)F)cn23)CC1 | 666
21 | Cc1ccc(-c2ncccc2CNS(=O)(=O)c2cccc(C)c2)cc1 | 726
22 | CCn1cc(-c2nc(C(=O)NCc3cccc(F)c3)cs2)c2cccnc21 | 983

Row | Structure (SMILES) | RP-LC retention time [s]
23 | Cc1nc(-c2ccccc2F)sc1C(=O)NC(C)C | 888
24 | COc1ccc2c(c1)-c1nc(NC(=O)c3ccc(Cl)cc3)sc1CC2 | 1180
25 | O=C1Nc2ccccc2C12OCC1(CO2)COC2(OC1)C(=O)Nc1ccccc12 (stereo not drawn) | 784
26 | CCC(=O)Nc1ccc2c(c1)CN(C(=O)c1ccc(C)cc1)C(C(=O)N1CCCC1)C2 (stereo not drawn) | 738
27 | COc1ccc(N2CCN(c3nc(C(=O)NCCN4CCOCC4)cs3)CC2)cc1 | 615
28 | Cc1cc(C(F)(F)F)nc(Nc2nc(C)c3ccccc3n2)n1 | 679
29 | CCOc1ccccc1CNc1nccc(-n2nc(C)cc2C)n1 | 894
30 | CCC1Oc2ccc(S(=O)(=O)N3CCC(C(=O)N(CC)Cc4ccccc4)CC3)cc2NC1=O (stereo not drawn) | 924
31 | CCOc1ccccc1NC(=O)N1CCC2(CC1)NC(=O)c1ccccc1N2C | 807
32 | COc1ccc(C(=O)c2c(N)c(C#N)c3ccccn23)cc1 | 777
33 | CCCN(CCC)CCCNC(=O)C1=C(C)C(=O)OC12CCN(Cc1ccccc1)CC2 | 558
34 | CCc1noc(NC(C)=O)c1-c1ccc(OC)c(S(=O)(=O)N2CC=C(c3ccccc3)CC2)c1 | 918
35 | CCCCOc1ccc(-c2csc(NC(=O)c3cc4cccc(OC)c4oc3=O)n2)cc1 | 897
36 | Cc1cc2oc(C(=O)NCC(c3ccccc3)N(C)C)cc(=O)c2cc1C (stereo not drawn) | 639
37 | O=C(Nc1cccc(F)c1)C1CCCN(c2nnc3ccc(Cl)cn23)C1 (stereo not drawn) | 806
38 | CCOc1cccc(-c2noc(Cn3ncn4nc(-c5ccc(F)cc5)cc4c3=O)n2)c1 | 860
39 | Cc1ccc(-c2ccnc3c(C(=O)NCCc4c[nH]c5ccccc45)cnn23)cc1C | 1070
40 | CC(C)C(=O)Nc1cc2c(cc1N(C)C)n(C)c(=O)c(=O)n2C | 631
41 | COc1ccc(C)cc1NC(=O)Cc1csc2nc(-c3cccc(Br)c3)cn12 | 1060
42 | O=C1CC(c2nc(-c3ccccc3F)no2)CN1c1ccc2c(c1)OCO2 (stereo not drawn) | 865
43 | COc1ccc(-c2cc3c(=O)n(Cc4ccc(F)cc4)ccn3n2)cc1OC | 913
44 | COc1cccc(-c2noc(C3CCCN3C(=O)Nc3ccccc3OC)n2)c1 (stereo not drawn) | 1020

Row | Structure (SMILES) | RP-LC retention time [s]
45 | O=C(NCCc1cccs1)c1nnc(-c2ccc(S(=O)(=O)N3CCCCC3)cc2)o1 | 977
46 | CCN1CCN(c2nc(-c3cccc(C)c3)nnc2C)CC1 | 575
47 | CC(=O)N1CCC2(CC1)OC(=O)C(C)=C2C(=O)NCc1ccccc1Br | 721
48 | CC(C)Cn1c(CCNC(=O)c2ccc(C#N)cc2)nc2cccnc21 | 709
49 | CC(C)NC(=O)c1ccc(-c2ccc(N3CCSCC3)nc2)cc1 | 663
50 | Cc1cccc(-c2noc(-c3nn(CC(=O)N4CCCC4)c4ccccc34)n2)c1 | 1080
51 | CCCCOC(=O)CC1C(=O)NCCN1C(=O)c1cc(Br)ccc1OCC (stereo not drawn) | 841
52 | Cc1ccc(NC(=O)N2CCCC(Cn3cnc4cccnc43)C2)cc1C (stereo not drawn) | 719
53 | Cc1ccccc1CNC(=O)C1CC(=O)N(c2ccc3c(c2)CCN3C(=O)C2CC2)C1 (stereo not drawn) | 702
54 | O=C(CN1CCN(c2ccccc2)CC1)Nc1nc(-c2ccc(Cl)cc2)cs1 | 834
55 | O=c1c(S(=O)(=O)N2CCCCCC2)cccn1Cc1cc(F)cc(F)c1 | 999
56 | COc1ccc(-n2cc(C(=O)OCc3ccco3)c3ccccc3c2=O)cc1 | 970
57 | Fc1cc(F)cc(Cc2nc3nccc(-c4ccccc4)n3n2)c1 | 926
58 | Cc1cc(NC(=O)CSc2nnc3sc4ccccc4n23)no1 | 668
59 | CCN(CC)S(=O)(=O)c1ccc2c(c1)N(CC(=O)N1CCN(C)CC1)C(=O)C1CCCCN21 (stereo not drawn) | 658
60 | CCN(CC)C(=O)Cn1c(=O)c2cnc(-c3ccc(C)cc3)nc2n(C)c1=O | 985
61 | O=C(Cn1nc2n(c1=O)CCCC2)Nc1ccc2c(c1)OCCO2 | 635
62 | CC(C)(C)c1ccc(NS(=O)(=O)c2ccc(N)cc2)cc1 | 971
63 | CC(C)n1cnc(S(=O)(=O)N2CCC(C(=O)NCCC3=CCCCC3)CC2)c1 | 804
64 | CCCn1ccc2sc(C)c(C(=O)NCc3ccc(SC)cc3)c2c1=O | 919
65 | Cc1nc2ccn(Cc3cccs3)c(=O)c2cc1C(=O)NCC1CCCO1 (stereo not drawn) | 670
66 | Cc1ccc(S(=O)(=O)c2cnc(N3CCN(c4cccc(Cl)c4)CC3)nc2N)cc1C | 1260

Row | Structure (SMILES) | RP-LC retention time [s]
67 | COc1ccc(-c2nc(-c3ccc4c(c3)nc(C)c(=O)n4C(C)C)no2)cc1 | 1160
68 | Cc1ccc(C(=O)CC2(O)C(=O)Nc3c(C)cccc32)cc1 (stereo not drawn) | 748
69 | O=C(Nc1ccc(NC(=O)N2CCC(C(=O)NCC3CC3)CC2)cc1)NC1CCCC1 | 679
70 | Cc1cccc(NC(=O)Cn2nc3n(c2=O)CCCCC3)c1C | 675
71 | COc1ccc(CNC(=O)Nc2ccccc2NC(=O)c2cccc(Cl)c2)cc1OC | 808
72 | O=C(CN1CCC(COCc2ccccc2)CC1)NCc1ccco1 | 571
73 | CCOc1ccc(CNC(=O)Cn2ccc3ccc(N4CCOCC4)nc32)cc1 | 894
74 | Cc1ccc(CNC(=O)Cn2ccc3ccc(-c4nnc(C)o4)cc32)o1 | 729
75 | O=C(C1=Cc2ccccc2OC=C1)N1CCc2ccccc2C1 | 1090
76 | Cc1ccc(-c2noc(-c3ccc(N4CCN(C5CCCCC5)CC4)nc3)n2)cc1 | 848
77 | CN(CCCNC(=O)C1CCc2nc(N3CCCC3)ncc2C1)c1ccccc1 (stereo not drawn) | 560
78 | CCCn1c(=O)c(N2CCN(C(=O)C3CCC3)CC2)nc2ccccc21 | 994
79 | CCSc1cccc(C(=O)N2CC(=O)Nc3ccccc32)c1 | 756
80 | CN[C@@H](C)C(=O)N[C@H]1CN(C(=O)CC(C)C)CC[C@H]2CC[C@@H](C(=O)NC(c3ccccc3)c3ccccc3)N2C1=O | 757
81 | Cc1nc2nc(-c3ccc(C(C)(C)C)cc3)nn2c(C)c1CC(=O)NC(C)C | 911
82 | Cc1ccc(F)c(NS(=O)(=O)c2cc(-c3[nH]ncc3C(=O)N(C)C)oc2C)c1 | 676
83 | Cc1ccccc1C(=O)Nc1nc(-c2ccc3c(c2)N(C)C(=O)CO3)c(C)s1 | 1050
84 | CSc1ccc(CNC(=O)C2CCCN(c3nc4c(s3)c(C)nn4-c3ccc(F)cc3)C2)cc1 (stereo not drawn) | 1190
85 | CC1CCN(S(=O)(=O)c2ccc(-c3nnc(C(=O)NC(C)C)o3)cc2)CC1 | 934
86 | Cn1cc(CCN2CCN(S(=O)(=O)c3ccc(Cl)cc3)CC2)c2cccnc21 | 645
87 | Cc1cccc(CNS(=O)(=O)c2ccc(-c3c(C)noc3C)cc2)c1 | 983
88 | Cc1cccn2cc(-c3ccc(NS(=O)(=O)c4ccc(Br)cc4)cc3)nc12 | 674
